According to patent US6989270B1, “Using polyamide nucleic acid oligomers to engender a biological response” (Mayo Foundation for Medical Education and Research, priority 1997, dated 2006):

Tests used:
[1] = test system: [125I]neurotensin binding sites (NT receptors); test: [125I]neurotensin binding assay, PAG and hypothalamus homogenates of treated rats; type: in vivo, rat
Description: Binding assays were done with homogenates from rat PAG and hypothalamus tissue as described elsewhere (Kanba et al., J. Neurochem. 46:946-952 (1986) and Al-Rodhan N.R.F., Brain Res. 557:227-235 (1991)). Tissue concentrations were 1 mg wet weight per tube in a total volume of 100 μl with a final buffer concentration of 0.05 M Tris-HCl (pH 7.4) containing the following compounds to inhibit degradation of peptides: 0.02% (w/v) bovine serum albumin, 2.8 mg/ml bacitracin, 1.0 mM EDTA, 0.5 mM o-phenanthroline, 10 μg/ml pepstatin, 10 μg/ml leupeptin, 10 μg/ml aprotinin, 5 mM benzamidine, 2 mM phenylmethylsulfonylfluoride, and 50 μM bestatin. For each experiment, 80 μl of a thawed membranal suspension was incubated for 25 minutes at 20° C. in a solution containing 0.2 nM [^125I]neurotensin with a final volume of 100 μl. After incubation, the mixture was rapidly filtered to separate bound from unbound radioligand. Each filter was then dried for 2 minutes, placed on a solid scintillation sheet (Wallac Oy, Turku Finland; cat. no. 1205-441), and measured for radioactivity in a beta-plate scintillation counter (Wallac Oy; model # 1205 beta plate). Non-specific binding of [^125I]neurotensin, defined as the binding in the presence of 1 μM neurotensin (−20% of total binding), was subtracted from the total binding to calculate the specific binding.
The LIGAND program was used to analyze all binding data (Munson P. J. and Rodbard D., Analyt. Biochem. 107:220-239 (1980)). Specifically, this program was used to calculate equilibrium dissociation constants and maximal number of binding sites.
The analysis of PAG tissue in experiment 1 was as follows. Four rats were cannulated and treated on days -4, -2, and 0 with either ACSF only or NTR1-PNA as described above. One day after the final treatment, the PAG region of the rat brain was removed, homogenized, and used in the binding assays. Rats treated with ACSF only were used to derive control values for the percent control disintegrations per minute (dpm) and percent control receptors (fmol/mg wet weight). Thus, the values for ACSF only treated rats were set to 100 percent. One day after the final treatment, the PAG region from NTR1-PNA oligomer treated rats expressed 60-70 percent fewer [^125I]neurotensin binding sites than ACSF only treated rats.
In experiment 2, five rats were untreated and used as controls, two recovered rats were treated with ACSF only, and four rats were treated with NTR1-PNA oligomers. The two rats treated with ACSF only are designated as recovered since both rats previously received a single dose of PNA oligomers intraperitoneally (one received NTR1-PNA oligomers and the other MU1R-PNA oligomers). These rats, however, were not used until five days after the intraperitoneal (i.p.) PNA oligomer treatment. Thus, at the time the binding analysis was performed, these rats were completely normal as determined by the behavioral NT-mediated responses and the MOR-mediated response described above. Again, one day after the final treatment, the PAG region from NTR1-PNA oligomer treated rats expressed fewer [^125I]neurotensin binding sites than both the recovered ACSF only treated rats and untreated control rats. In this experiment, the reduction in binding sites was about 20-30 percent of those expressed by the untreated rats.
NT binding sites from the hypothalamus region of the rat brain were also analyzed. In this experiment, the hypothalamus region of rat brain was removed from the same rats used in experiment 2 to analyze the PAG region (five untreated control rats, two recovered ACSF only treated rats, and four NTR1-PNA oligomer treated rats). The untreated rats were used to derive control values. One day after the final treatment, the hypothalamus region from NTR1-PNA oligomer treated rats expressed 40-50 percent fewer [^125I]neurotensin binding sites than untreated control rats. […]

[2] = test system: NTR1 mRNA; test: Quantitative RT-PCR of NTR1 mRNA relative to GAPDH; type: in vivo; details: treated intracranially, 5 μg
Description: Messenger RNA (mRNA) levels for NTR1, MU1R, and GAPDH were measured in control and PNA-treated animals. Briefly, total RNA was isolated from approximately 20 mg of tissue using the S.N.A.P. total RNA Isolation Kit (Invitrogen, Carlsbad, Calif.). Quantitative RT-PCR was performed on treated and control animals using GAPDH as an internal standard and PCR fragments of the human NTR and of a GAPDH deletion mutant as exogenous standards. First strand cDNA was synthesized from approximately 500 ng of total RNA using the cDNA Cycle Kit (Invitrogen, Carlsbad, Calif.). PCR was performed on a GeneAmp PCR System 9600 (Perkin Elmer, Norwalk, Conn.) using end-labeled primer and TAq DNA Polymerase (Gibco-BRL, Gaithersburg, Md.). Products were separated on a 5% acrylamide gel containing 7 M urea, and detected using a Storm860 Phosphoimager (Molecular Dynamics, Sunnyvale, Calif.). Data were analyzed using ImageQuant Software (Molecular Dynamics, Sunnyvale Calif.). To control for any diurnal mRNA level fluctuations that may occur, the PNA injection time was controlled such that the tissue harvest time was identical in each animal group.

[3] = test system: [125I]neurotensin binding sites (NT receptors); test: [125I]neurotensin binding assay, small intestine (jejunum and ileum) membranal preparations of treated rats; type: in vivo, rat
Description: Binding assays were performed using procedures similar to those described elsewhere (Kitabgi P. et al., Peptides 5:917-923 (1984) and Ahmad S. et al., Biochim et Biophys Acta 896:224-238 (1987)).
Table II contains the results from an [^125I]neurotensin binding assay using small intestine (jejunum and ileum) membranal preparations from NTR1-PNA treated and untreated rats. The small intestine tissue was harvested from the rats 1 day after receiving a single i.p. injection of NTR1-PNA oligomers as described above. Untreated rats were used to derive control values for the percent control dpm and percent control receptors (fmol/mg). Thus, the values for untreated rats were set to 100 percent.
In addition to determining the influence of […] NTR1-PNA oligomers on anti-nociception and hypothermia, the effects of these oligomers on NT binding sites were determined using the NT receptor binding assay described in Example 1.

[4] = test system: NTR1 binding sites; test: [125I]NT binding in PAG, rest of brain and small intestine after i.p. AS-NTR1-PNA (Example 8); type: in vivo, rat; details: for Binding (% change vs control) NT: 24 hours after i.p. injection
[5] = PAG tissue, Experiment 1, control ACSF only, PAG injections days -4, -2, 0
[6] = PAG tissue, Experiment 2, untreated control
[7] = small intestine, 1 day after single i.p. injection (3 mg/kg)

NTR1-PNA: 12-mer antisense PNA oligomer to rat NTR1 coding region, 5′-CATTGCTCAAAC-3′ (SEQ ID NO: 1) (all peptide nucleic acid (PNA))
% Control receptors ([1]; Hypothalamus tissue, untreated control, PNA injected into PAG): 51 % Control | % Control dpm's [1, 5]: 41 % Control | % Control receptors [1, 5]: 32 % Control | % Control dpm's [1, 6]: 81 % Control | % Control receptors [1, 6]: 67 % Control | fewer [125I]neurotensin binding sites than ACSF only treated rats ([1]; PAG, experiment 1, one day after final treatment): 60-70% | reduction in [125I]neurotensin binding sites vs untreated rats ([1]; PAG, experiment 2, one day after final treatment): 20-30% | effect of excess PNA added to brain homogenates on the binding assay ([1]; excess PNA added in vitro to brain homogenates): did not change these results | fewer [125I]neurotensin binding sites than untreated control rats ([1]; hypothalamus, one day after final treatment): 40-50% | change in NTR1/GAPDH ratio of mRNA over time [2]: no significant change | number of receptors (mean ± SEM in fmol/mg wet wt.) ([3]; Small intestine, 24 hours after single oral 10 mg/kg): Below Detection | % Control dpm's [3, 7]: 41 % Control | % Control receptors [3, 7]: 2 % Control | NT binding sites ([3]; small intestine, 24 hours after oral 10 mg/kg): completely abolished | fewer [125I]neurotensin binding sites than untreated rats ([3]; small intestine, one day after i.p. treatment): 98% | reduction in the number of NTR1 binding sites vs untreated animals ([4]; PAG): 35% | Binding (% change vs control) NT ([4]; PAG): −35 ± 9 % change vs control | Binding (% change vs control) NT ([4]; Rest of Brain): −40 ± 1 % change vs control | Binding (% change vs control) NT ([4]; Small Intestine): −65 ± 5 % change vs control | reduction in the number of NTR1 binding sites vs untreated animals ([4]; rest of brain): 40% | reduction in the number of NTR1 binding sites vs untreated animals ([4]; small intestine): 65%
